Results reported in patent US20180094051A1, “METHOD FOR INHIBITING LYMPHANGIOGENESIS BY ADMINISTRATION OF AN INHIBITOR OF THE CXCL12 PATHWAY” (Tsinghua University, priority 2012, published 2018).
“Also recorded” adds a separate entry of the source.

Assays:
[1] = test system: mouse lymphatic endothelial cells; test: Cell chemotaxis assay (Transwell); assay type: cell-based; conditions: antibodies 5 μg/mL, AMD3100 25 μg/mL, 6 hours; for effect on migration of mouse lymphatic endothelial cells induced by CXCL12: CXCL12 100 ng/mL, LY294002 and U0126 10 μM, pretreated 30 minutes
Protocol: The migration ability of mouse lymphatic endothelial cells was assessed using 8-μm-pore Transwell bucket (filter membrane) (purchased from Costar). The transwell bucket was placed into a 24-well plate. Mouse primary lymphatic endothelial cells (mLECs) at passage 2 or 3 in good conditions were selected, and divided into five groups, four parallel samples for each group and approximately 2×10^4 cells for each parallel sample. The cells were digested with trypsin, resuspended in 200 μL of fresh serum-free endothelial cell culture medium (ECM, purchased from Sciencell), and then seeded into the inner chambers of the Transwell bucket. To each outer chamber was added 800 μL of serum-free endothelial cell culture medium mixed with 1 ng/mL, 20 ng/mL, 100 ng/mL of chemokine CXCL12 (purchased from R&D Systems), 100 ng/mL of VEGF-C (purchased from R&D Systems) and PBS control, respectively. The culture plate was placed into an incubator and incubated under 5% CO2 at 37° C. for 6 hours.
After taking out the culture plate, the Transwell bucket was fixed in 4% paraformaldehyde solution for 15 minutes. The Transwell bucket was rinsed twice in PBS, stained with 0.1% crystal violet solution for 30 minutes, and then washed with PBS to remove the non-specifically bound crystal violet. The cells inside Transwell membrane were wiped off gently with medical cotton swabs. Note that the cells on the edge of the membrane should also be wiped off to avoid affecting cell counting. The Transwell bucket was placed under a microscope (Olympus IX71 microscope), and the cells migrated from the outer membrane were observed by microscopy. 8 fields per group were photographed randomly to count the cells.
The migration ability of mouse lymphatic endothelial cells was assessed using 8-μm-pore Transwell bucket (purchased from Costar). The bucket was placed into a 24-well plate. Mouse primary lymphatic endothelial cells (mLECs) at passage 2 or 3 in good conditions were selected, and divided into six groups, four parallel samples for each group, and approximately 2×10^4 cells for each parallel sample. The cells were digested with trypsin and resuspended in 200 μL, of fresh serum-free endothelial cell culture medium (ECM, purchased from Sciencell). The cells were pretreated for 30 minutes with dimethyl sulfoxide (DMSO) as a control, protein kinase B (Akt) antagonist LY294002 (10 μM, purchased from Sigma-Aldrich) and extracellular signal-regulated kinase (Erk) antagonist U0126 (10 μM, purchased from Sigma-Aldrich), respectively, and then seeded into the inner chambers of the Transwell bucket. […] The cells were stained and the number of the migrated cells was counted.
The migration ability of mouse lymphatic endothelial cells was detected by using 8-μm-pore Transwell bucket (purchased from Costar). […]

[2] = test system: newly formed lymphatic vessels; test: In vivo Matrigel plug assay (lymphangiogenesis); design: species or system BALB/c mice; conditions: CXCL12 500 ng/mL; antibodies 10 μg/mL, AMD3100 50 μg/mL; 8 days
Protocol: Matrigel plug assay was conducted as previously reported^[44]. BALB/C mice (5 weeks old, female, purchased from Vital River Laboratories, Beijing) were divided into five groups, five mice each group. Growth factor-free Matrigel (9-10 mg/mL, purchased from Becton-Dickinson Biosciences) containing 20 ng/mL, 100 ng/mL, 500 ng/mL of chemokine CXCL12 (purchased from R&D Systems), 500 ng/mL of VEGF-C (purchased from R&D Systems), and PBS control, respectively, was injected subcutaneously into the BALB/c mice along the abdominal midline. The Matrigel formed a solid plug in the mice, and the agent was slowly released from the Matrigel to stimulate new mouse lymphatic vessels to be formed and grown into the Matrigel. 8 days later, the Matrigel was removed carefully.
After being washed in PBS, the Matrigel were fixed in 30% sucrose solution at 4° C. overnight. Frozen sections in a thickness of about 10 μm were prepared and stored at −20° C. The frozen sections were blocked with a blocking solution in a humidified chamber at room temperature for 1 hour. The blocking solution was PBS containing 10% normal goat serum. […]
The newly formed lymphatic vessels in the Matrigel were detected by immunofluorescence, and observed and imaged under a laser confocal microscope (Nikon A1) using the imaging and statistic software NIS-Elements AR 3.0. […]

[3] = test system: chemokine receptor CXCR4; test: Immunoblotting of CXCR4 in lymphatic endothelial cells (incl. HIF-1α RNA interference); assay type: cell-based; conditions: mouse lymphatic endothelial cells, 100 ng/mL VEGF-C, 6, 12 and 24 hours
Protocol: Mouse primary lymphatic endothelial cells at passage 2 or 3 in good condition were selected, and starved overnight by replacing the culture medium with a fresh medium free of serum and growth factors. Then the medium was replaced with a medium containing 100 ng/mL of VEGF-C. The cells were incubated for 6, 12 and 24 hours, respectively, and then trypsinized and collected by centrifugation for detecting the expression level of chemokine receptor CXCR4 in the cells by immunoblotting.
The samples were subjected to SDS-PAGE (the concentration of separation gel was 15%). Protein bands were transferred to polyvinylidene difluoride (PVDF) membrane (purchased from Millipore) at 100 mA for 3 hours using an electroblotting device in ice bath. TBST buffer (20 mM Tris, pH7.4, 150 mM NaCl, 0.1% Tween-20) was formulated for preparing blocking solution, primary antibody solution and secondary antibody solution. The PVDF membrane was further incubated in blocking solution containing 5% skim milk for 1 hour at room temperature with gentle shaking. The membrane was then washed with TBST for 5 times, 5 minutes each. […]
The siRNA for interfering with the chemical synthesis of HIF-1α was purchased from Santa Cruz Biotechnology, and the negative control siRNA was purchased from GenePharma, Shanghai. […] HIF-1α knock-down efficiency was detected by immunoblotting. […]

Row | Molecule | effect on migration of mouse lymphatic endothelial cells induced by CXCL12 [1] | effect on activity of VEGF-C (migration of mouse lymphatic endothelial cells) ([1]; VEGF-C 100 ng/mL) | effect on lymphangiogenesis induced by CXCL12 in Matrigel plug [2] | expression level of CXCR4 [3]
1 | N#CC(=C(/N)Sc1ccccc1N)/C(C#N)=C(\N)Sc1ccccc1N [U0126] | inhibited the lymphatic endothelial cell migration induced by chemokine CXCL12 | – | – | –
2 | c1cc(CN2CCCNCCNCCCNCC2)ccc1CN1CCCNCCNCCCNCC1 [AMD3100] | could inhibit the migration of mouse lymphatic endothelial cells induced by CXCL12; also recorded: activity of chemokine CXCL12 was inhibited | had no effect on the activity of growth factor VEGF-C; also recorded: the activity of VEGF-C was not affected | could significantly reduce the activity of chemokine CXCL12 | –
3 | CXCR4: Printed in b110 as the treating agent; apparently a misprint for VEGF-C (protein) MEPISVSIYTSDNYSEEVGSGDYDSNKEPCFRDENVHFNRIFLPTIYFIIFLTGIVGNGLVILVMGYQKKLRSMTDKYRLHLSVADLLFVITLPFWAVDAMADWYFGKFLCKAVHIIYTVNLYSSVLILAFISLDRYLAIVHATNSQRPRKLLAEKAVYVGVWIPALLLTIPDFIFADVSQGDISQGDDRYICDRLYPDSLWMVVFQFQHIMVGLILPGIVILSCYCIIISKLSHSKGHQKRKALKTTVILILAFFACWLPYYVGISIDSFILLGVIKQGCDFESIVHKWISITEALAFFHCCLNPILYAFLGAKFKSSAQHALNSMSRGSSLKILSKGKRGGHSSVSTESESSSFHSS | – | – | – | could upregulate the expression level of CXCR4
